# Results taken from patent publication US9592211B2, “Compositions for improvement of brain function” (GRESPO AB, priority 2012, dated 2017).
# “Also recorded” adds a separate entry of the source.
# Experiments:
# [1] = system: synaptic terminals in hippocampal CA1 zone; test: Synaptic morphology alterations (electron microscopy), Example 4; format: in vivo, Mongolian gerbils
# From the text: In the middle portion of the CA1 stratum radiatum analyzed in the study, the great majority of synaptic inputs are excitatory and they preferentially terminate on the […], Taking into consideration these aspects, we could focus our analyses on the pool of excitatory CA1 spine synapses.
# After perfusion the brains were isolated and separated on two hemispheres.
# The hippocampus from another hemisphere of each animal was isolated and cut in 400-μm-thick transverse slices by a chopper (McIlwain tissue chopper, Great Britain). […] Tissue slices were then dehydrated in an ascending series of ethanol followed by dry acetone and embedded in EPON resin according to official protocol. The sections were produced by ultramicrotome LKB-8800. Toluidine blue-stained semi-thin (1 μm) sections of hippocampus were used to localize hippocampal CA1 area. For electron microscopy, ultra-thin sections (70 nm) from the middle portion of CA1 stratum pyramidale and stratum radiatum were stained with uranyl acetate and lead citrate.
# The images were taken with JEM-100CX (Jeol, Japan) transmission electron microscope at magnification of ×10 000.
# Perforated synapse was defined as a synapse with discontinuous PSD. The synapses with more than one spine contacting the same presynaptic terminal were classified as multiple spine boutons (MSB).
# For the analysis of SV's distribution, x- and y-coordinates of SV profile centers and points tracing the active zone of a synapse were marked with UTHSCSA ImageTool software (version 3, University of Texas, San Antonio, Tex.; ftp://maxrad6.uthscsa.edu) on digitized micrographs, using the point tool.
# AZD and NND quantities were pooled together per group. […]
# Estimations of synapse density were carried out on single photos by counting all asymmetric spine synapses (determined by the presence of a spine head with prominent PSD and docked synaptic vesicles (SV) in the active zone of a presynaptic terminal) on the micrograph surface limited by the counting frame (36 mkm^2 test area) followed by calculation of the number of synapses per surface unit area.
# Mongolian gerbils = test: T-maze spontaneous alternation, cognitive function/memory, Example 2; format: in vivo; settings: old gerbils, feeding in chow, tested once (FIG. 2)
# From the text: During the course of the treatment, the animals were subjected to T-maze test measuring cognitive function and/or memory as specified under Materials and Methods.
# For long-lasting feeding (during 6 month) 75 old male Mongolian gerbils, randomly selected, were used. Those selected were approximately 1.5 years of age at start of the experiment with the mean body weight of 88.0±6 g and 2 years of age at experiment finish.
# Subjects were first placed in the start arm of the T Maze. Upon leaving the start arm, subjects chose between entering either the left or the right goal arm. […] The percentage of alternation (number of turns in each goal arm) and total trial duration were recorded.
# [2] = system: nestin-positive neurons in hippocampal CA1 area; test: Induction of hippocampal neurogenesis (nestin immunohistochemistry), Example 1; format: in vivo, Mongolian gerbils; settings: old gerbils, 6 month feeding in chow, compared to age matched controls (FIG. 1)
# Description: After the course of treatment as specified under Materials and Methods, the animals were sacrificed and the brains were analysed histologically to quantitate hippocampal neurogenesis.
# Nestin is a marker for immature neurons. Nestin positive cells were found in the hippocampal layer of the pyramidal neurons. […] In some cells long processes that seem to be dendrites extended into deeper layers of the hippocampus, and these processes were nestin positive as well. In all of the CA fields of the hippocampus (CA1-CA3) these cells were structurally similar to pyramidal cells. The structural similarities between nestin positive cells and neurons allow regarding this type of cells as newly generated neurons.
# In Example 1. the animals were fed Labofeed B standard chow (from Labofeed company; Andrzej Morawski Feed Production Plant, Kcynia near. Bydgoszcz, Poland) supplemented with test compounds as specified in table 1.
# The lipase, protease and amylase were obtained as capsules containing 30,000 USP units/capsule of lipase, 20,000 USP units/capsule of protease, and 3,000 USP units/capsule of amylase) prepared as shown in Table 2. […]
# Samplings for immunohistochemistry (one hemisphere of each animal) were postfixed overnight in the same fixative at +4° C. […] Then slices were washed out, placed on histological slides and mounted with Fluorescence Mounting Media (Dako, Denmark). […]
smiles,measurement,setting,value
"O=C(O)CCC(=O)C(=O)O [AKG, alpha-ketoglutaric acid]",number of SVs (synaptic vesicles) per presynaptic terminal,"[1]; hippocampal CA1, compared to control old animals (FIG. 6A)",increased
same,"number of synaptic terminals (synaptic contacts) per unit area (100 μm^2), increased to","[1]; hippocampal CA1, old gerbils after long time treatment, old control three times lower than young (FIG. 4)",55%
same,distance from a synaptic vesicle to the active zone (AZD),"[1]; hippocampal synapses, old gerbils (FIG. 7)",increase of a distance from a vesicle to the active zone
same,cognition (percentage of spontaneous alterations in T-maze test),Mongolian gerbils,improved cognition
same,hippocampal neurogenesis (number of nestin-positive neurons per 1 mm of pyramidal layer length in hippocampal CA1 area),[2],increased hippocampal neurogenesis; also recorded: increase neurogenesis
